Data published in patent US6355799B1, “Substituted benzene compounds, process for their preparation, and herbicidal and defoliant compositions containing them” (ISK Americas Incorporated, priority 1997, dated 2002).

How the values were obtained:
Type in all cases: in vivo
[1] = test system: lambsquarters (Chenopodium album, CHEAL); assay: Post-emerge test, greenhouse herbicide activity screening; settings: post-emerge, 14 days after application, rating scale 0-100
How it was run: (§1)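 Herbicidal damage is scored 0 (none) to 100 (complete plant death) two weeks after a simulated field spray. Rates span 15–1000 g ai/ha, delivered in acetone at 187 l/ha. For post-emergence treatments, plants have 2–3 leaves and the spray carries 0.25% v/v non-ionic surfactant.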

[2] = test system: velvetleaf (Abutilon theophrasti, ABUTH); assay: as above; settings: post-emerge, 14 days after application, rating scale 0-100
How it was run: as §1

[3] = test system: sicklepod (Cassia obtusifolia, CASOB); assay: as above; settings: post-emerge, 14 days after application, rating scale 0-100
How it was run: as §1

[4] = test system: redroot pigweed (Amaranthus retroflexus, AMARE); assay: as above; settings: post-emerge, 14 days after application, rating scale 0-100
How it was run: as §1

[5] = test system: ivyleaf morningglory (Ipomoea hederacea, IPOHE); assay: as above; settings: post-emerge, 14 days after application, rating scale 0-100
How it was run: as §1

[6] = test system: green foxtail (Setaria viridis, SETVI); assay: as above; settings: post-emerge, 14 days after application, rating scale 0-100
How it was run: as §1

[7] = test system: large crabgrass (Digitaria sanguinalis, DIGSA); assay: as above; settings: post-emerge, 14 days after application, rating scale 0-100
How it was run: as §1

[8] = test system: barnyardgrass (Echinochloa crus-galli, ECHCG); assay: as above; settings: post-emerge, 14 days after application, rating scale 0-100
How it was run: as §1

[9] = test system: johnsongrass (Sorghum halepense, SORHA); assay: as above; settings: post-emerge, 14 days after application, rating scale 0-100
How it was run: as §1

[10] = test system: lambsquarters (Chenopodium album, CHEAL); assay: Pre-emerge test, greenhouse herbicide activity screening; settings: rated 14 days after application, 0 = no damage, 100 = complete death
How it was run: (§2)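 Rating: 0–100 visual injury, 14 DAA. Application: acetone, 187 l/ha, 15–1000 g ai/ha, flat-fan track sprayer with nozzle 40–45 cm above soil or canopy. Post-emerge runs used 0.25% v/v surfactant on 2–3 leaf plants.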

[11] = test system: velvetleaf (Abutilon theophrasti, ABUTH); assay: as above; settings: rated 14 days after application, 0 = no damage, 100 = complete death
How it was run: as §2

[12] = test system: sicklepod (Cassia obtusifolia, CASOB); assay: as above; settings: rated 14 days after application, 0 = no damage, 100 = complete death
How it was run: as §2

[13] = test system: ivyleaf morningglory (Ipomoea hederacea, IPOHE); assay: as above; settings: rated 14 days after application, 0 = no damage, 100 = complete death
How it was run: as §2

[14] = test system: green foxtail (Setaria viridis, SETVI); assay: as above; settings: rated 14 days after application, 0 = no damage, 100 = complete death
How it was run: as §2

[15] = test system: large crabgrass (Digitaria sanguinalis, DIGSA); assay: as above; settings: rated 14 days after application, 0 = no damage, 100 = complete death
How it was run: as §2

[16] = test system: barnyardgrass (Echinochloa crus-galli, ECHCG); assay: as above; settings: rated 14 days after application, 0 = no damage, 100 = complete death
How it was run: as §2

[17] = test system: johnsongrass (Sorghum halepense, SORHA); assay: as above; settings: rated 14 days after application, 0 = no damage, 100 = complete death
How it was run: as §2

[18] = test system: redroot pigweed (Amaranthus retroflexus, AMARE); assay: as above; settings: rated 14 days after application, 0 = no damage, 100 = complete death
How it was run: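 Sandy loam pots; pre-emerge: sown 1 d pre-spray, surface-watered after, then bottom-watered. Post-emerge: sown 8–21 d before, 2–3 leaf stage, + 0.25% v/v NIS, bottom-watered. Acetone, 187 l/ha track spray, 15–1000 g ai/ha. 0–100 injury score, day 14.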

[19] = test system: field corn (Zea mays L., var. Dekalb 535, CORN); assay: Pre-emerge test, crop safety; settings: rated 14 days after application, 0 = no damage, 100 = complete death
How it was run: (§3)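 Applied at 15–1000 g ai/ha from acetone in 187 l/ha spray volume. Post-emergence applications included 0.25% v/v non-ionic surfactant and reached plants sown 8–21 days before. Pre-emergence applications were incorporated by surface watering. Efficacy or crop damage was rated on a 0–100 scale after 14 days.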

[20] = test system: upland rice (Oryza sp., var. Tebonnet, RICE); assay: Pre-emerge test, crop safety; settings: rated 14 days after application, 0 = no damage, 100 = complete death
How it was run: as §3

[21] = test system: field corn (Zea mays L., var. Dekalb 535, CORN); assay: Post-emerge test, crop safety; settings: post-emerge, 14 days after application, rating scale 0-100
How it was run: (§4)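 Plants grown in 10 cm pots of sandy loam mix received acetone-dissolved compounds through a moving flat-fan nozzle. Doses ranged from 15 to 1000 g ai/ha. Pre-emerge pots were seeded one day earlier, post-emerge pots 8–21 days earlier. Fourteen days on, each pot was graded 0–100 for damage.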

[22] = test system: upland rice (Oryza sp., var. Tebonnet, RICE); assay: Post-emerge test, crop safety; settings: post-emerge, 14 days after application, rating scale 0-100
How it was run: as §4

Structure (SMILES): COc1c(Cl)cc(F)c(-n2c(=O)cc(C(F)(F)F)n(N)c2=O)c1NC(=O)c1ccc2ccccc2c1 [2-77]
- phytotoxicity rating CHEAL ([1]; 63 g ai/ha): 100
- phytotoxicity rating CHEAL ([1]; 250 g ai/ha): 80
- phytotoxicity rating ABUTH ([2]; 63 g ai/ha): 100
- phytotoxicity rating ABUTH ([2]; 250 g ai/ha): 100
- phytotoxicity rating CASOB ([3]; 63 g ai/ha): 40
- phytotoxicity rating CASOB ([3]; 250 g ai/ha): 100
- phytotoxicity rating AMARE ([4]; 63 g ai/ha): 10
- phytotoxicity rating AMARE ([4]; 250 g ai/ha): 100
- phytotoxicity rating IPOHE ([5]; 63 g ai/ha): 60
- phytotoxicity rating IPOHE ([5]; 250 g ai/ha): 95
- phytotoxicity rating SETVI ([6]; 63 g ai/ha): 0
- phytotoxicity rating SETVI ([6]; 250 g ai/ha): 0
- phytotoxicity rating DIGSA ([7]; 63 g ai/ha): 0
- phytotoxicity rating DIGSA ([7]; 250 g ai/ha): 0
- phytotoxicity rating ECHCG ([8]; 63 g ai/ha): 0
- phytotoxicity rating ECHCG ([8]; 250 g ai/ha): 0
- phytotoxicity rating SORHA ([9]; 63 g ai/ha): 0
- phytotoxicity rating SORHA ([9]; 250 g ai/ha): 0
- Pre-emerge Herbicidal Activity, phytotoxicity rating (0-100), CHEAL ([10]; 63 g ai/ha): 90
- Pre-emerge Herbicidal Activity, phytotoxicity rating (0-100), CHEAL ([10]; 250 g ai/ha): 100
- Pre-emerge Herbicidal Activity, phytotoxicity rating (0-100), ABUTH ([11]; 63 g ai/ha): 30
- Pre-emerge Herbicidal Activity, phytotoxicity rating (0-100), ABUTH ([11]; 250 g ai/ha): 100
- Pre-emerge Herbicidal Activity, phytotoxicity rating (0-100), CASOB ([12]; 63 g ai/ha): 0
- Pre-emerge Herbicidal Activity, phytotoxicity rating (0-100), CASOB ([12]; 250 g ai/ha): 30
- Pre-emerge Herbicidal Activity, phytotoxicity rating (0-100), IPOHE ([13]; 63 g ai/ha): 0
- Pre-emerge Herbicidal Activity, phytotoxicity rating (0-100), IPOHE ([13]; 250 g ai/ha): 30
- Pre-emerge Herbicidal Activity, phytotoxicity rating (0-100), SETVI ([14]; 63 g ai/ha): 0
- Pre-emerge Herbicidal Activity, phytotoxicity rating (0-100), SETVI ([14]; 250 g ai/ha): 60
- Pre-emerge Herbicidal Activity, phytotoxicity rating (0-100), DIGSA ([15]; 63 g ai/ha): 0
- Pre-emerge Herbicidal Activity, phytotoxicity rating (0-100), DIGSA ([15]; 250 g ai/ha): 30
- Pre-emerge Herbicidal Activity, phytotoxicity rating (0-100), ECHCG ([16]; 63 g ai/ha): 0
- Pre-emerge Herbicidal Activity, phytotoxicity rating (0-100), ECHCG ([16]; 250 g ai/ha): 0
- Pre-emerge Herbicidal Activity, phytotoxicity rating (0-100), SORHA ([17]; 63 g ai/ha): 0
- Pre-emerge Herbicidal Activity, phytotoxicity rating (0-100), SORHA ([17]; 250 g ai/ha): 0
- Pre-emerge Herbicidal Activity, phytotoxicity rating (0-100), AMARE ([18]; 63 g ai/ha): 70
- Pre-emerge Herbicidal Activity, phytotoxicity rating (0-100), AMARE ([18]; 250 g ai/ha): 100
- Pre-emerge phytotoxicity rating (0-100), crop damage, CORN ([19]; 63 g ai/ha): 0
- Pre-emerge phytotoxicity rating (0-100), crop damage, CORN ([19]; 250 g ai/ha): 0
- Pre-emerge phytotoxicity rating (0-100), crop damage, RICE ([20]; 63 g ai/ha): 0
- Pre-emerge phytotoxicity rating (0-100), crop damage, RICE ([20]; 250 g ai/ha): 20
- phytotoxicity rating CORN ([21]; 63 g ai/ha): 0
- phytotoxicity rating CORN ([21]; 250 g ai/ha): 10
- phytotoxicity rating RICE ([22]; 63 g ai/ha): 20
- phytotoxicity rating RICE ([22]; 250 g ai/ha): 40
